# Target: Hsp27c (Homo sapiens, UniProt P04792)
# Assay: STD-NMR binding experiment
# Conditions: Figure S2
# Chain of Hsp27c (P04792 79-176): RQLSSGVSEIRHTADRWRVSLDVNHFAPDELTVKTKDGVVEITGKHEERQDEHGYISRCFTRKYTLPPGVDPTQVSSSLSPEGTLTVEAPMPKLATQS
structure (smiles),measurement,value
"Nc1cccnc1Oc1ccc(F)cc1F [Compound 4, 2-(2,4-difluorophenoxy)pyridin-3-amine]",binding to Hsp27c in STD-NMR,bound
